This assay has as its system MMP-2. The assay can be described thus: Substrate phage display with NGS: relative probability (RP) of P3-P1' tetramer clusters. Type of assay: biochemical, human. The note with it: for avg_RP: MMP2 - no binning.
Where [1] appears, read: average relative probability of the tetramer, redundant tetramers averaged out.
Setting [2] is: average relative probability of the P3-P1' tetramer, redundant tetramers have been averaged out.
[3] abbreviates: average relative probability (RP) of the P3-P1' tetramer, redundant tetramers have been averaged out.
Where [4] appears, read: tetramer projected onto MMP-2 cleavage sites determined by Prudova et al. (2010).
Setting [5] is: tetramer probability in MMP2 set / naive library, 200 nM protease, 2 h, 37°C.

PKLL: the avg_RP under setting [1] is listed as 15.3454.
Still for that read-out and setting: the same measure for PKNQ: 13.2723.
Consider PKQL, for which, under setting [2], the avg_RP is reported as 26.0949.
PKWI displayed an avg_RP under setting [1] of 22.5059.
Turning to PKWL, the avg_RP under setting [1] was determined as 29.287.
Still for that read-out and setting: the same measure for PLAF: 31.4142.
On to PLAL, for which the avg_RP under setting [2] was found to be 34.4921.
Same read-out and setting: the same measure for PLAS: 26.7589.
On to PLDM, for which the avg_RP under setting [3] is listed as 20.8822.
PLGI: under setting [1], the avg_RP is reported as 33.936.
On the same count and under the same terms, the result for PLGL reads 35.3536; that for PLGM, 34.1118.
As to PLHL, under setting [2], the avg_RP is on record as 34.1843.
PLHM: the avg_RP under setting [1] is reported as 30.0095.
Substance PLKI registered an avg_RP under setting [1] of 14.0985.
On the same count and under the same terms, the result for PLKV reads 0.2165.
Still for that read-out and setting: the result for PLLL reads 15.2696; that for PLML, 25.0435.
Turning to PLMM, under setting [2], the avg_RP was determined as 20.5706.
The substance PLMY returned an avg_RP under setting [1] of 17.2027.
Under setting [3], PLNL returned an avg_RP of 34.7054.
Turning to PLNS, the avg_RP under setting [1] is given as 18.9358.
Turning to PLNW, under setting [2], the avg_RP stood at 28.8158.
Same read-out and setting: the result for PLPQ reads 24.381.
For the substance PLPW, the avg_RP under setting [3] is 30.0861.
Substance PLQI came in with an avg_RP under setting [1] of 21.9897.
Consider PLRI, for which the avg_RP under setting [3] was 15.7039.
The same measure, in the same setting: the same measure for PLSI: 32.2576.
PLSQ yielded an avg_RP under setting [2] of 26.5842.
PLSW gave an avg_RP under setting [3] of 31.2944.
As for PLSY, the avg_RP under setting [1] was found to be 31.2477.
Substance PLTI registered an avg_RP under setting [2] of 16.7446.
PLVY yielded an avg_RP under setting [1] of 0.5489.
In the case of PMDY, under setting [1], the avg_RP is 10.9087.
With PMFL, under setting [1], the avg_RP amounted to 18.5721.
Still for that read-out and setting: the same measure for PMGL: 34.7865.
In turn, PMGM returned an avg_RP under setting [3] of 28.512.
As for PMHL, the avg_RP under setting [1] is 30.095.
For the substance PMLL, the avg_RP under setting [2] was determined as 14.7282.
In the case of PMNL, under setting [3], the avg_RP is recorded as 32.5586.
PMNV: under setting [1], the avg_RP is 12.9651.
PMQL: under setting [2], the avg_RP is recorded as 27.6586.
As for PMRL, the avg_RP under setting [2] is given as 20.4124.
With PMSL, under setting [3], the avg_RP was found to be 32.4868.
Under setting [1], PMWS displayed an avg_RP of 5.1021.
In turn, PNAF displayed an avg_RP under setting [1] of 16.8865.
Same read-out and setting: the same measure for PNFL: 15.743.
PNPL: the avg_RP under setting [1] amounted to 23.6266.
Under setting [3], PNRL came in with an avg_RP of 14.3701.
For PNWL, the avg_RP under setting [2] is recorded as 26.5667.
On the same count and under the same terms, the result for PNYI reads 6.6891.
In the case of PNYL, the avg_RP under setting [1] came to 17.2533.
Substance PQAV showed an avg_RP under setting [3] of 23.1021.
Consider PQGM, for which the avg_RP under setting [1] is 29.6059.
In turn, PQHL gave an avg_RP under setting [3] of 31.2196.
PQMI showed an avg_RP under setting [1] of 16.6558.
As for PQRM, the avg_RP under setting [1] stood at 19.3209.
The substance PQSL showed an avg_RP under setting [2] of 33.5105.
For PQSW, under setting [2], the avg_RP was 25.7009.
For the substance PQWI, the avg_RP under setting [1] was 28.1021.
For the substance PQWM, the avg_RP under setting [1] is 29.0885.
Take PRAW: the avg_RP under setting [2] stood at 34.1791.
For the substance PRFI, the avg_RP under setting [1] is 22.3274.
Same read-out and setting: the same measure for PRGM: 34.3819; for PRGN: 16.6168.
PRGS gave an avg_RP under setting [1] of 16.3331.
The substance PRLY yielded an avg_RP under setting [1] of 15.7594.
Same read-out and setting: the result for PRNI reads 31.9621.
As for PRNL [P3-P1' tetramer cluster], the “relative probability (RP)” value under setting [4] amounted to 35.13.
PRNT: the avg_RP under setting [1] was 2.5391.
Same read-out and setting: the result for PRNV reads 26.6015; that for PRPV, 29.4989.
On to PRQV, for which the avg_RP under setting [1] is 4.0665.
Same read-out and setting: the result for PRSH reads 18.6153; that for PRSM, 32.6673.
For the substance PRSW, the avg_RP under setting [1] is 32.796.
The same measure, in the same setting: the result for PRSY reads 30.3745; that for PRVL, 13.9079.
In turn, PRWI returned an avg_RP under setting [3] of 30.8879.
The substance PRWL displayed an avg_RP under setting [1] of 34.1809.
As to PRWM, the avg_RP under setting [2] is given as 32.3694.
Consider PRYM, for which, under setting [1], the avg_RP was found to be 28.0367.
With PRYW, the avg_RP under setting [2] was determined as 20.9965.
Under setting [1], PSAL [P3-P1' tetramer cluster] yielded an avg_RP of 36.1873. In addition, the “relative probability (RP)” value under setting [5] is 36.1873 and the “relative probability (RP)” value under setting [4] is on record as 36.19.
In the case of PSAM, the avg_RP under setting [1] is 32.7825.
On the same count and under the same terms, the result for PSAQ reads 28.0379.
Under setting [2], PSFL had an avg_RP of 29.537.
As to PSGF, under setting [1], the avg_RP worked out at 31.2448.
PSGM yielded an avg_RP under setting [2] of 32.7604.
Under setting [1], PSGW returned an avg_RP of 32.6048.
As for PSLI, the avg_RP under setting [3] came to 16.6444.
Turning to PSLY, the avg_RP under setting [1] amounted to 18.1013.
PSML registered an avg_RP under setting [2] of 33.0235.
With PSNL [P3-P1' tetramer cluster], the “relative probability (RP)” value under setting [5] was 36.5166.
PSNM: under setting [2], the avg_RP worked out at 32.3748.
As for PSRI, the avg_RP under setting [3] is 23.675.
Consider PSRM, for which, under setting [1], the avg_RP came to 27.1397.
For PSSL, the avg_RP under setting [2] amounted to 35.4913.
Regarding PSTL, the avg_RP under setting [1] was determined as 30.1803.
In turn, PSWL had an avg_RP under setting [2] of 35.705.
Under setting [1], PSWS showed an avg_RP of 13.1501.
The same measure, in the same setting: the same measure for PSWV: 21.5104; for PTAL: 32.8941.
In the case of PTSL, the avg_RP under setting [2] worked out at 28.926.
In turn, PVAM displayed an avg_RP under setting [1] of 31.7171.
The same measure, in the same setting: the same measure for PVFL: 21.7568.
As for PVGL, under setting [2], the avg_RP stood at 35.2016.
Substance PVHL had an avg_RP under setting [1] of 32.2352.
On the same count and under the same terms, the result for PVHM reads 25.8779; that for PVHY, 23.3589.
The same measure, in the same setting: the result for PVNL reads 34.508.
With PVNM, the avg_RP under setting [3] is reported as 30.0312.
In the case of PVPM, the avg_RP under setting [1] is reported as 31.3308.
PVQL: the avg_RP under setting [2] was determined as 26.094.
With PVWM, under setting [1], the avg_RP is on record as 25.8126.
On the same count and under the same terms, the same measure for PWAL: 31.9211.
Same read-out and setting: the result for PWAW reads 10.3227.
Consider PWFL, for which, under setting [2], the avg_RP is 12.628.
PWFM returned an avg_RP under setting [1] of 3.6842.
Under setting [3], PWGL showed an avg_RP of 31.3204.
PWGM gave an avg_RP under setting [1] of 25.1614.
On the same count and under the same terms, the result for PWHI reads 10.946; that for PWKL, 9.9628.
In the case of PWLQ, under setting [2], the avg_RP was determined as 0.2574.
The substance PWNY yielded an avg_RP under setting [1] of 16.9576.
Take PWSL: under setting [1], the avg_RP is recorded as 28.5684.
The same measure, in the same setting: the result for PWSV reads 0.3793.
On the same count and under the same terms, the same measure for PYAM: 28.0901.
Regarding PYFL, the avg_RP under setting [3] turned out to be 19.1471.
PYGM had an avg_RP under setting [1] of 27.2726.
Still for that read-out and setting: the same measure for PYHI: 15.3574; for PYHL: 27.2418.
Still for that read-out and setting: the same measure for PYKL: 15.5683; for PYKY: 4.8733.
PYLL yielded an avg_RP under setting [3] of 11.898.
Regarding PYML, the avg_RP under setting [2] is 24.9477.
In turn, PYNL gave an avg_RP under setting [1] of 30.8263.
Consider PYPL, for which the avg_RP under setting [1] amounted to 30.8058.
In turn, PYSL gave an avg_RP under setting [1] of 30.7259.
PYSW showed an avg_RP under setting [1] of 16.4352.
Consider PYTL, for which, under setting [2], the avg_RP is on record as 16.827.
The same measure, in the same setting: the result for QLAM reads 5.2406.

These data come from PMC7932537, “Quantitative profiling of protease specificity” (PLoS Computational Biology, 2021).
